In patent US7816387B2, “β secretase inhibitor” (Dainippon Sumitomo Pharma Co., Ltd., priority 2005, dated 2010):
pIC50: −log10 of the molar value.

System: Human Neuroblastoma IMR-32 Cell
Test: Inhibition of production and secretion of Aβ in IMR-32 cells (ELISA of Aβ)
Format: cell-based
Settings: 24 hours incubation, Aβ in supernatant by ELISA
Protocol: 1) Incubation of IMR-32 Cell
IMR-32 cells (American Type Culture Collection Inc.) were seeded to 35 mmφPetri dish (FALCON Ltd.) at 37° C. for 2 to 3 days at 1.5×10^5 cells/petri dish. A DMSO solution containing test compound was dissolved in a 0.2% bovine serum albumin (Sigma Inc.)/Dulbecco's modified Eagle medium (Sigma Inc.), and a 1 mL of the mixture was added to the above Petri dish and the mixture was incubated for additional 24 hours. A 0.2% bovine serum albumin/Dulbecco's modified Eagle medium without the test compound was used as a control. The supernatant was collected and centrifuged at 5000 rpm for 5 minutes to precipitate a suspension cell. After centrifugation, the supernatant was used as a measurement sample of Aβ.
(2) Determination by Enzyme-Linked Immunoassay (ELISA) of Aβ
To a maxi sorp 96 well plate (Nunc Inc.) was added 50 μL portions of 4G8 antibody (Sigma Inc.) dissolved in 0.1M carbonate buffer (pH 9.5) and the mixture was allowed to stand at 4° C. overnight. […] After washing three times with PBST, color was developed by TMB substrate kit (Pias Inc.) and the calorimetric method (measured wavelength: 450 nm) was determined by a plate reader (ELx 808, BIO-TEK INSTRUMENTS Inc.).

pIC50: 6.70
SMILES: C[C@@H](NC(=O)c1cc(C(=O)N[C@@H](Cc2ccccc2)[C@@H](O)C(=O)Nc2ncc[nH]2)cc(N(C)S(C)(=O)=O)c1)c1ccccc1 [Example 1, N-[(1S,2R)-1-Benzyl-2-hydroxy-3-(1H-imidazol-2-ylamino)-3-oxopropyl]-5-[methyl(methylsulfonyl)amino]-N′-[(1R)-1-phenylethyl]isophthalamide]
